US9328083B2, “2-aminated methylene or 2-esterified methylene tanshinone derivatives, and preparation method and application thereof” (HANGZHOU BENSHENG PHARMACEUTICAL CO., LTD., priority 2011, dated 2016)

What was measured:
[1] = tested on: H9 (acute lymphoblastic leukemia, ALL); assay: MTT growth inhibition of leukemia cells, 72 h; assay type: cell-based, human; conditions: Homo sapiens, H9, 72 h; for IC50: read-out: IC50; for IC90: read-out: IC90
Excerpt: (§1) Leukemia cell lines: leukemia cell lines: K562/adr (drug-resistant, chronic myeloid leukemia, CML), NB4 (acute promyelocytic leukemia, AML), Kasumi-1 (acute myeloid leukemia M2 type, AML-M2), and Jurkat (acute lymphoblastic leukemia, ALL), all of which are donated by Cancer Research Institute of Zhejiang University, China; and H9 (acute lymphoblastic leukemia, ALL), which is purchased from China Center for Type Culture Collection (CCTCC).
(§2) The standard sample of tanshinone I (TA) and the 2-aminated methylene or 2-esterified methylene tanshinone I derivatives of the present invention are sufficiently dissolved with dimethylsulfoxide to produce a stock solution of 10 mg/mL, which is refrigerated at 4° C. and stored in dark, and is diluted with a cell culture medium to the desired concentration prior to experimentation.
(§3) Obtaining 6000 well-growing leukemia cells and inoculating them into wells of a 96-well cell culture plate. The culture medium is the RPMI-1640 cell culture medium containing 10% fetal bovine serum. After adding on the second day the 2-aminated methylene or 2-esterified methylene tanshinone I derivatives of different concentrations and mixing uniformly, placing the plate in a carbon dioxide cell incubator (5% CO2) at 37° C. and incubated for 72 hours. Then the viable cell concentration is determined by MTT method.

[2] = tested on: Jurkat (acute lymphoblastic leukemia, ALL); assay: MTT growth inhibition of leukemia cells, 72 h; assay type: cell-based, human; conditions: Homo sapiens, 72 h; for IC50: read-out: IC50; for IC90: read-out: IC90
Excerpt: as §1, §2, §3

[3] = tested on: K562/adr (drug-resistant, chronic myeloid leukemia, CML); assay: MTT growth inhibition of leukemia cells, 72 h; assay type: cell-based, human; conditions: Homo sapiens, K562/Adr; for IC50: read-out: IC50; for IC90: read-out: IC90
Excerpt: as §1, §2, §3

[4] = tested on: Kasumi-1 (acute myeloid leukemia M2 type, AML-M2); assay: MTT growth inhibition of leukemia cells, 72 h; assay type: cell-based, human; conditions: Homo sapiens, Kasumi-1, 72 h; for IC50: read-out: IC50; for IC90: read-out: IC90
Excerpt: as §1, §2, §3

[5] = tested on: NB4 (acute promyelocytic leukemia, AML); assay: MTT growth inhibition of leukemia cells, 72 h; assay type: cell-based, human; conditions: Homo sapiens, NB4, 72 h; for IC50: read-out: IC50; for IC90: read-out: IC90
Excerpt: as §1, §2, §3

[6] = tested on: RPMI8226 (multiple myeloma); assay: MTT growth inhibition of multiple myeloma cells, 72 h; assay type: cell-based, human; conditions: Homo sapiens, RPMI 8226, 72 h; for IC50: read-out: IC50; for IC90: read-out: IC90
Method: Myeloma cell lines: RPMI8226 (multiple myeloma), purchased from Fuxiang Bio-tech Co. Ltd., Shanghai, China.
as §2
as §3, with “myeloma” for “leukemia”, “cells as above” for “cells”, “1640” for “RPMI-1640”, “adding” for “adding on the second day”

A549 (human lung cancer) = assay: MTT growth inhibition of human solid tumor cells, 72 h; assay type: cell-based; conditions: Homo sapiens, A549, 72 h; for IC50: read-out: IC50; for IC90: read-out: IC90
Method: (§4) Hep-2 (laryngeal carcinoma), A549 (human lung cancer), CaES-17 (esophageal cancer cell), PC-3 (prostate cancer), CNE (nasopharyngeal carcinoma cell), and SK-OV-3 (ovarian cancer cell), all of which are purchased from China Center For Type Culture Collection; RKO (human colon adenocarcinoma cell), MGC 803 (human gastric cancer cell), MG63 (osteosarcoma) and U87 MG (malignant glioma cell), all of which are purchased from Fuxiang Bio-tech Co. Ltd., Shanghai, China; PANC-1 (pancreatic cancer), Hep G2 (human liver cancer cell), Becap37 (human breast cancer cell) and Hela (human cervical cancer cell), all of which are donated by Cancer Research Institute of Zhejiang University, China.
as §2
(§5) Obtaining 4000 well-growing human solid tumor cells and inoculating them into wells of a 96-well cell culture plate. The culture medium is DMEM High Glucose cell culture medium containing 10% fetal bovine serum. The plate is placed in a carbon dioxide cell incubator (5% CO2) at 37° C. and incubated for 24 hours. After adding the 2-aminated methylene or 2-esterified methylene tanshinone I derivatives of different concentrations and mixing uniformly, the plate is placed in a carbon dioxide cell incubator (5% CO2) at 37° C. and incubated for 72 hours. Then the viable cell concentration is determined by the MTT method.

[7] = tested on: Becap37 (human breast cancer cell); assay: as above; assay type: cell-based; conditions: Homo sapiens, Becap-37, 72 h; for IC50: read-out: IC50; for IC90: read-out: IC90
Method: as §4, §2, §5

[8] = tested on: CNE (nasopharyngeal carcinoma cell); assay: as above; assay type: cell-based; conditions: Homo sapiens; for IC50: read-out: IC50; for IC90: read-out: IC90
Method: as §4, §2, §5

[9] = tested on: CaES-17 (esophageal cancer cell); assay: as above; assay type: cell-based; conditions: Homo sapiens, CaEs17, CaEs-17, 72 h; for IC50: read-out: IC50; for IC90: read-out: IC90
Method: as §4, §2, §5

[10] = tested on: Hela (human cervical cancer cell); assay: as above; assay type: cell-based; conditions: Homo sapiens, HeLa, 72 h; for IC50: read-out: IC50; for IC90: read-out: IC90
Method: as §4, §2, §5

[11] = tested on: Hep G2 (human liver cancer cell); assay: as above; assay type: cell-based; conditions: Homo sapiens, HepG2, Hep G2, 72 h; for IC50: read-out: IC50; for IC90: read-out: IC90
Method: as §4, §2, §5

[12] = tested on: Hep-2 (laryngeal carcinoma); assay: as above; assay type: cell-based; conditions: Homo sapiens, HEp-2, 72 h; for IC50: read-out: IC50; for IC90: read-out: IC90
Method: as §4, §2, §5

MG63 (osteosarcoma) = assay: as above; assay type: cell-based; conditions: Homo sapiens, MG-63, 72 h; for IC50: read-out: IC50; for IC90: read-out: IC90
Method: as §4, §2, §5

[13] = tested on: MGC 803 (human gastric cancer cell); assay: as above; assay type: cell-based; conditions: Homo sapiens, MGC-803, 72 h; for IC50: read-out: IC50; for IC90: read-out: IC90
Method: as §4, §2, §5

[14] = tested on: PANC-1 (pancreatic cancer); assay: as above; assay type: cell-based; conditions: Homo sapiens, PANC-1, 72 h; for IC50: read-out: IC50; for IC90: read-out: IC90
Method: as §4, §2, §5

PC-3 (prostate cancer) = assay: as above; assay type: cell-based; conditions: Homo sapiens, PC-3, 72 h; for IC50: read-out: IC50; for IC90: read-out: IC90
Method: as §4, §2, §5

[15] = tested on: RKO (human colon adenocarcinoma cell); assay: as above; assay type: cell-based; conditions: Homo sapiens; for IC50: read-out: IC50; for IC90: read-out: IC90
Method: as §4, §2, §5

[16] = tested on: SK-OV-3 (ovarian cancer cell); assay: as above; assay type: cell-based; conditions: Homo sapiens, SK-OV-3, 72 h; for IC50: read-out: IC50; for IC90: read-out: IC90
Method: as §4, §2, §5

[17] = tested on: U87 MG (malignant glioma cell); assay: as above; assay type: cell-based; conditions: Homo sapiens, U-87 MG, U87-MG, 72 h; for IC50: read-out: IC50; for IC90: read-out: IC90
Method: as §4, §2, §5

IC50 [1] [µg/mL]	IC90 [1] [µg/mL]	IC50 [2] [µg/mL]	IC90 [2] [µg/mL]	IC50 [3] [µg/mL]	IC90 [3] [µg/mL]	IC50 [4] [µg/mL]	IC90 [4] [µg/mL]	IC50 [5] [µg/mL]	IC90 [5] [µg/mL]	IC50 [6] [µg/mL]	IC90 [6] [µg/mL]	IC50 (A549 (human lung cancer)) [µg/mL]	IC90 (A549 (human lung cancer)) [µg/mL]	IC50 [7] [µg/mL]	IC90 [7] [µg/mL]	IC50 [8] [µg/mL]	IC90 [8] [µg/mL]	IC50 [9] [µg/mL]	IC90 [9] [µg/mL]	SMILES	also measured
6.25	15.9	4.79	> 16	11.2	> 16	5.03	> 16	0.99	7	3.86	16	8.9	> 16	8.1	> 16	3.87	> 16	8.45	> 16	CC[N+](C)(Cc1ccc(F)c(Cl)c1)Cc1oc2c(c1C)C(=O)C(=O)c1c-2ccc2c(C)cccc12 (centres unmarked) [BS-TA-50]	IC50 [10]: 7.78 µg/mL; IC90 [10]: > 16 µg/mL; IC50 [11]: > 16 µg/mL; IC90 [11]: > 16 µg/mL; IC50 [12]: 13.7 µg/mL; IC90 [12]: > 16 µg/mL; IC50 (MG63 (osteosarcoma)): 1.67 µg/mL; IC90 (MG63 (osteosarcoma)): > 16 µg/mL; IC50 [13]: 8.91 µg/mL; IC90 [13]: > 16 µg/mL; IC50 [14]: 4.24 µg/mL; IC90 [14]: > 16 µg/mL; IC50 (PC-3 (prostate cancer)): 10.7 µg/mL; IC90 (PC-3 (prostate cancer)): > 16 µg/mL; IC50 [15]: 2.5 µg/mL; IC90 [15]: > 16 µg/mL; IC50 [16]: > 16 µg/mL; IC90 [16]: > 16 µg/mL; IC50 [17]: 4.67 µg/mL; IC90 [17]: > 16 µg/mL
1.4	4	1.28	3.99	1.36	5.12	1.61	3.86	0.9	2.98	2	7.64	3.78	9.78	1.88	3.67	3.2	7.2	3.58	7.74	Cc1c(C[N+](C)(CCO)Cc2ccc(F)c(Cl)c2)oc2c1C(=O)C(=O)c1c-2ccc2c(C)cccc12 (centres unmarked) [BS-TA-60]	IC50 [10]: 3.32 µg/mL; IC90 [10]: 7.35 µg/mL; IC50 [11]: 2.5 µg/mL; IC90 [11]: 5.97 µg/mL; IC50 [12]: 1.79 µg/mL; IC90 [12]: 7.41 µg/mL; IC50 (MG63 (osteosarcoma)): 1.24 µg/mL; IC90 (MG63 (osteosarcoma)): 5.23 µg/mL; IC50 [13]: 2.9 µg/mL; IC90 [13]: 5.4 µg/mL; IC50 [14]: 1.74 µg/mL; IC90 [14]: 3.58 µg/mL; IC50 (PC-3 (prostate cancer)): 5.03 µg/mL; IC90 (PC-3 (prostate cancer)): 10.8 µg/mL; IC50 [15]: 0.52 µg/mL; IC90 [15]: 1.88 µg/mL; IC50 [16]: 9.78 µg/mL; IC90 [16]: 22.7 µg/mL; IC50 [17]: 0.36 µg/mL; IC90 [17]: 18.8 µg/mL
